{
  "source": "paper PMC2631660",
  "about": "(Bioorganic & medicinal chemistry, 2008)",
  "key": {"[1]": {"target": "T1, hGSTA1-1 (Homo sapiens, UniProt P08263)", "T1 sequence (P08263 1-222)": "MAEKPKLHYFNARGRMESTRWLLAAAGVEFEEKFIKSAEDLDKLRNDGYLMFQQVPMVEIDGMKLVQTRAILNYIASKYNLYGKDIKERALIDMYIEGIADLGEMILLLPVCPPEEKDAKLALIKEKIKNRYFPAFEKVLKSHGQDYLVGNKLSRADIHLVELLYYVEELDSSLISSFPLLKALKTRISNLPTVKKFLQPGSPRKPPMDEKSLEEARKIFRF", "assay": "Specific activity / enzyme kinetics of GST towards compounds in presence of GSH", "assay_type": "biochemical", "settings": "compound 50 µM, 37 °C"}, "[2]": {"target": "hGSTP1-1 (Homo sapiens, UniProt P09211)", "sequence (P09211 2-210 limits assumed)": "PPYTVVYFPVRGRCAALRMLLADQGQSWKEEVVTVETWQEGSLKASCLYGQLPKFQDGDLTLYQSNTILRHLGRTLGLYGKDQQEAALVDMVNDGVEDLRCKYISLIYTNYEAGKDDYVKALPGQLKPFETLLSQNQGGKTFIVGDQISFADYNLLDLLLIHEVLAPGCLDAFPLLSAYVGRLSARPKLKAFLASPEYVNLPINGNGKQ", "assay": "Specific activity / enzyme kinetics of GST towards compounds in presence of GSH", "assay_type": "biochemical", "settings": "compound 50 µM, 37 °C"}, "[3]": {"target": "T2, hGSTM1-1 (Homo sapiens, UniProt P09488)", "T2 sequence (P09488 2-218 limits assumed)": "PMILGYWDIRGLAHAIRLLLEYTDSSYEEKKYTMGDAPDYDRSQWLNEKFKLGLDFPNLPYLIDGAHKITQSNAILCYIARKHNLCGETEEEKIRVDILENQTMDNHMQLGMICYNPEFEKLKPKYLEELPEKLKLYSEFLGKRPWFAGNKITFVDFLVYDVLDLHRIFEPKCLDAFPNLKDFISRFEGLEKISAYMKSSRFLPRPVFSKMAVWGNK", "assay": "Specific activity / enzyme kinetics of GST towards compounds in presence of GSH", "assay_type": "biochemical", "settings": "compound 50 µM, 37 °C"}, "[4]": {"system": "HL-60 cells", "assay": "MTT cell proliferation assay", "assay_type": "cell-based", "settings": "Homo sapiens, HL-60, 72 h, read-out: IC50 anti-proliferative activity"}},
  "data": [
    {"smiles": "CCOC(=O)N1CCN(/[N+]([O-])=N/Oc2ccc([N+](=O)[O-])cc2[N+](=O)[O-])CC1C", "note": "(stereo not shown) [3a, O^2-(2,4-Dinitrophenyl) 1-[(4-Ethoxycarbonyl)-3-methylpiperazin-1-yl]diazen-1-ium-1,2-diolate]", "values": [
      {"measurement": "GSTA1-1 specific activity", "setting": "[1]", "value": 55.5, "unit": "µmol/mg/min"},
      {"measurement": "GSTP1-1 specific activity", "setting": "[2]", "value": 1.15, "unit": "µmol/mg/min"},
      {"measurement": "GSTM1-1 specific activity", "setting": "[3]", "value": 112, "unit": "µmol/mg/min"}
    ]},
    {"smiles": "CCOC(=O)N1CCN(/[N+]([O-])=N/Oc2ccc([N+](=O)[O-])cc2[N+](=O)[O-])C(C)C1", "note": "(stereo not shown) [3b, O^2-(2,4-Dinitrophenyl) 1-[(4-Ethoxycarbonyl)-2-methylpiperazin-1-yl]diazen-1-ium-1,2-diolate]", "values": [
      {"measurement": "GSTA1-1 specific activity", "setting": "[1]", "value": 47.0, "unit": "µmol/mg/min"},
      {"measurement": "GSTP1-1 specific activity", "setting": "[2]", "value": 0.88, "unit": "µmol/mg/min"},
      {"measurement": "GSTM1-1 specific activity", "setting": "[3]", "value": 110, "unit": "µmol/mg/min"}
    ]},
    {"smiles": "CCOC(=O)N1C(C)CN(/[N+]([O-])=N/Oc2ccc([N+](=O)[O-])cc2[N+](=O)[O-])CC1C", "note": "(stereo not shown) [3c, O^2-(2,4-Dinitrophenyl) 1-[(4-Ethoxycarbonyl)-3,5-dimethylpiperazin-1-yl]diazen-1-ium-1,2-diolate]", "values": [
      {"measurement": "GSTA1-1 specific activity", "setting": "[1]", "value": 70.3, "unit": "µmol/mg/min"},
      {"measurement": "GSTP1-1 specific activity", "setting": "[2]", "value": 1.17, "unit": "µmol/mg/min"},
      {"measurement": "GSTM1-1 specific activity", "setting": "[3]", "value": 172, "unit": "µmol/mg/min"}
    ]},
    {"smiles": "CCOC(=O)N1CC(C)N(/[N+]([O-])=N/Oc2ccc([N+](=O)[O-])cc2[N+](=O)[O-])CC1C", "note": "(stereo not shown) [3d, O^2-(2,4-Dinitrophenyl) 1-[(4-Ethoxycarbonyl)-2,5-dimethylpiperazin-1-yl]diazen-1-ium-1,2-diolate]", "values": [
      {"measurement": "GSTA1-1 specific activity", "setting": "[1]", "value": 17.6, "unit": "µmol/mg/min"},
      {"measurement": "GSTP1-1 specific activity", "setting": "[2]", "value": 0.14, "unit": "µmol/mg/min"},
      {"measurement": "GSTM1-1 specific activity", "setting": "[3]", "value": 49, "unit": "µmol/mg/min"}
    ]},
    {"smiles": "CCOC(=O)N1CCCN(/[N+]([O-])=N/Oc2ccc([N+](=O)[O-])cc2[N+](=O)[O-])CC1", "note": "[4a]", "values": [
      {"measurement": "GSTA1-1 specific activity", "setting": "[1]", "value": 16.8, "unit": "µmol/mg/min"},
      {"measurement": "GSTP1-1 specific activity", "setting": "[2]", "value": 0.16, "unit": "µmol/mg/min"},
      {"measurement": "GSTM1-1 specific activity", "setting": "[3]", "value": 38, "unit": "µmol/mg/min"}
    ]},
    {"smiles": "COC(=O)N1CCN(/[N+]([O-])=N/Oc2ccc([N+](=O)[O-])cc2[N+](=O)[O-])CC1", "note": "[4b]", "values": [
      {"measurement": "GSTA1-1 specific activity", "setting": "[1]", "value": 45.1, "unit": "µmol/mg/min"},
      {"measurement": "GSTP1-1 specific activity", "setting": "[2]", "value": 0.98, "unit": "µmol/mg/min"},
      {"measurement": "GSTM1-1 specific activity", "setting": "[3]", "value": 102, "unit": "µmol/mg/min"}
    ]},
    {"smiles": "CCCOC(=O)N1CCN(/[N+]([O-])=N/Oc2ccc([N+](=O)[O-])cc2[N+](=O)[O-])CC1", "note": "[4c]", "values": [
      {"measurement": "GSTA1-1 specific activity", "setting": "[1]", "value": 59.0, "unit": "µmol/mg/min"},
      {"measurement": "GSTP1-1 specific activity", "setting": "[2]", "value": 1.2, "unit": "µmol/mg/min"},
      {"measurement": "GSTM1-1 specific activity", "setting": "[3]", "value": 126.3, "unit": "µmol/mg/min"}
    ]},
    {"smiles": "CCOC(=O)N1CCN(/[N+]([O-])=N/Oc2ccc([N+](=O)[O-])cc2[N+](=O)[O-])CC1", "note": "[JS-K, O^2-(2,4-dinitrophenyl) 1-[(4-ethoxycarbonyl)piperazin-1-yl]diazen-1-ium-1,2-diolate]", "values": [
      {"measurement": "GSTA1-1 specific activity", "setting": "[1]", "value": 66.3, "unit": "µmol/mg/min"},
      {"measurement": "IC50", "setting": "[4]", "value": "200 to 500", "unit": "nM"},
      {"measurement": "GSTP1-1 specific activity", "setting": "[2]", "value": 1.36, "unit": "µmol/mg/min"},
      {"measurement": "GSTM1-1 specific activity", "setting": "[3]", "value": 126, "unit": "µmol/mg/min"}
    ]}
  ]
}
